Measured values: US12264134B2 (Merck Sharp & Dohme LLC, priority 2018, dated 2025)

Biological target: IDO1 (Homo sapiens, UniProt P14902)
Experiment: IDO1 Cellular Assay in HeLa Cells Stimulated with IFNγ
Type: cell-based
Conditions: read-out: HeLa Cell Potency, IC50

Sequence of IDO1 (P14902 whole entry): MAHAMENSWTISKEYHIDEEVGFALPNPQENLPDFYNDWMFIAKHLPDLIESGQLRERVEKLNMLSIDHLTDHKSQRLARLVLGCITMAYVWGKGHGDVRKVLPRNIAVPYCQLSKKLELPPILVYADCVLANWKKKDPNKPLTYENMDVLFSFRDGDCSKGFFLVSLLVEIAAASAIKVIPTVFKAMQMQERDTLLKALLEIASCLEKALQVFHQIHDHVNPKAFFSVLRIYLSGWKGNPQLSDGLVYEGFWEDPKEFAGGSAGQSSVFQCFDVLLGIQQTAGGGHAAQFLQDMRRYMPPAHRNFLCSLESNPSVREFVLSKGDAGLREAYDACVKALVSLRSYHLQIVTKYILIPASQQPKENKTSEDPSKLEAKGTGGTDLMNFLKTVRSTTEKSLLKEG

IC50 [nM] | SMILES
4.77 | Cc1cccc(N2CCN(C(=O)Cn3nc(C(=O)N4CCC5(CC4)CNC(=O)CO5)c4c3C[C@H]3C[C@@H]43)CC2)c1C [Example 244, 9-[(3bR,4aR)-1-{2-[4-(2,3-dimethylphenyl)piperazin-1-yl]-2-oxoethyl}-3b,4,4a,5-tetrahydro-1H-cyclopropa[3,4]cyclopenta[1,2-c]pyrazole-3-carbonyl]-1-oxa-4,9-diazaspiro[5.5]undecan-3-one]
18.3 | Cc1c(F)cccc1N1CCN(C(=O)Cn2nc(C(=O)N3C[C@@H](C)O[C@@H](C)C3)c3c2CCC3)CC1 [Example 77, 2-{3-[(2R,6S)-2,6-dimethylmorpholine-4-carbonyl]-5,6-dihydrocyclopenta[c]pyrazol-1(4H)-yl}-1-[4-(3-fluoro-2-methylphenyl)piperazin-1-yl]ethan-1-one]
1.88 | Cc1c(C(F)F)cccc1N1CCN(C(=O)Cn2nc(C(=O)N3CCC(OCCO)CC3)c3c2C[C@H]2C[C@@H]32)CC1 [Example 345, 1-(4-(3-(difluoromethyl)-2-methylphenyl)piperazin-1-yl)-2-((3bR,4aR)-3-(4-(2-hydroxyethoxy)piperidine-1-carbonyl)-3b,4,4a,5-tetrahydro-1H-cyclopropa[3,4]cyclopenta[1,2-c]pyrazol-1-yl)ethanone]
18.3 | Cc1cccc(N2CCN(C(=O)Cn3nc(C(=O)N4CCOC(CO)C4)c4c3CCC4)CC2)c1C (centres unmarked) [Example 103, 1-[4-(2,3-dimethylphenyl)piperazin-1-yl]-2-{3-[2-(hydroxymethyl)morpholine-4-carbonyl]-5,6-dihydrocyclopenta[c]pyrazol-1(4H)-yl}ethan-1-one]
141 | Cc1cccc(N2CCN(C(=O)Cn3nc(C(=O)N4CCC5(CC4)NC(=O)NC5=O)c4c3CCC4)CC2)c1C [Example 133, 8-(1-{2-[4-(2,3-dimethylphenyl)piperazin-1-yl]-2-oxoethyl}-1,4,5,6-tetrahydrocyclopenta[c]pyrazole-3-carbonyl)-1,3,8-triazaspiro[4.5]decane-2,4-dione]
0.73 | CC(=O)NC1CCN(C(=O)c2nn(CC(=O)N3CCN(c4cccc(C)c4C)CC34CC4)c3c2[C@@H]2C[C@@H]2C3)CC1 [Example 356, N-(1-((3bR,4aR)-1-(2-(7-(2,3-dimethylphenyl)-4,7-diazaspiro[2.5]octan-4-yl)-2-oxoethyl)-3b,4,4a,5-tetrahydro-1H-cyclopropa[3,4]cyclopenta[1,2-c]pyrazole-3-carbonyl)piperidin-4-yl)acetamide]
34.1 | Cc1ccc(F)cc1N1CCN(C(=O)Cn2nc(C(=O)N3C[C@@H](C)O[C@@H](C)C3)c3c2CCC3)CC1 [Example 75, 2-{3-[(2R,6S)-2,6-dimethylmorpholine-4-carbonyl]-5,6-dihydrocyclopenta[c]pyrazol-1(4H)-yl}-1-[4-(5-fluoro-2-methylphenyl)piperazin-1-yl]ethan-1-one]
8.74 | Cc1cccc(N2CCN(C(=O)Cn3nc(C(=O)N4CCC(O)C(F)C4)c4c3CCCCC4)CC2)c1C (centres unmarked) [Example 411, 1-(4-(2,3-dimethylphenyl)piperazin-1-yl)-2-(3-(3-fluoro-4-hydroxypiperidine-1-carbonyl)-5,6,7,8-tetrahydrocyclohepta[c]pyrazol-1(4H)-yl)ethanone]
19.3 | Cc1cccc(N2CCN(C(=O)Cn3nc(C(=O)N4CCC(C(N)=O)CC4)c4c3CCC4)CC2)c1C [Example 137, 1-(1-{2-[4-(2,3-dimethylphenyl)piperazin-1-yl]-2-oxoethyl}-1,4,5,6-tetrahydrocyclopenta[c]pyrazole-3-carbonyl)piperidine-4-carboxamide]
337 | C[C@@H]1CN(C(=O)c2nn(CC(=O)N3CCN(c4ccc(F)cc4)CC3)c3c2CCC3)C[C@H](C)O1 [Example 28, 2-{3-[(2R,6S)-2,6-dimethylmorpholine-4-carbonyl]-5,6-dihydrocyclopenta[c]pyrazol-1(4H)-yl}-1-[4-(4-fluorophenyl)piperazin-1-yl]ethan-1-one]
38.2 | C[C@@H]1CN(C(=O)c2nn(CC(=O)N3CCN(c4cccc(Cl)c4F)CC3)c3c2CCC3)C[C@H](C)O1 [Example 78, 1-[4-(3-chloro-2-fluorophenyl)piperazin-1-yl]-2-{3-[(2R,6S)-2,6-dimethylmorpholine-4-carbonyl]-5,6-dihydrocyclopenta[c]pyrazol-1(4H)-yl}ethan-1-one]
3.15 | CC(=O)NC1CCN(C(=O)c2nn(CC(=O)N3CCN(c4cccc(Cl)c4C)CC3)c3c2CC(F)CC3)CC1 (centres unmarked) [Example 377, N-(1-(1-(2-(4-(3-chloro-2-methylphenyl)piperazin-1-yl)-2-oxoethyl)-5-fluoro-4,5,6,7-tetrahydro-1H-indazol-3-carbonyl)piperidin-4-yl)acetamide]
1.28 | Cc1cccc(N2CCN(C(=O)Cn3nc(C(=O)N4CCC(O)C(CO)C4)c4c3C[C@H]3C[C@@H]43)CC2)c1C (stereo partly drawn) [Example 264, 1-[4-(2,3-dimethylphenyl)piperazin-1-yl]-2-{(3bR,4aR)-3-[4-hydroxy-3-(hydroxymethyl)piperidine-1-carbonyl]-3b,4,4a,5-tetrahydro-1H-cyclopropa[3,4]cyclopenta[1,2-c]pyrazol-1-yl}ethan-1-one]
83 | COc1ccc(N2CCN(C(=O)Cn3nc(C(=O)N4C[C@@H](C)O[C@@H](C)C4)c4c3CCC4)CC2)c(C)c1C [Example 47, 2-{3-[(2R,6S)-2,6-dimethylmorpholine-4-carbonyl]-5,6-dihydrocyclopenta[c]pyrazol-1(4H)-yl}-1-[4-(4-methoxy-2,3-dimethylphenyl)piperazin-1-yl]ethan-1-one]
209 | CCc1cccc(N2CCN(C(=O)Cn3nc(C(=O)N4C[C@@H](C)O[C@@H](C)C4)c4c3CCC4)CC2)c1 [Example 60, 2-{3-[(2R,6S)-2,6-dimethylmorpholine-4-carbonyl]-5,6-dihydrocyclopenta[c]pyrazol-1(4H)-yl}-1-[4-(3-ethylphenyl)piperazin-1-yl]ethan-1-one]
55 | Cc1cccc(N2CCN(C(=O)Cn3nc(C(=O)N4CCC5NCC5C4)c4c3C[C@H]3C[C@@H]43)CC2)c1C (stereo partly drawn) [Example 236, 2-[(3bR,4aR)-3-(3,7-diazaspiro[4.2.0]octane-3-carbonyl)-3b,4,4a,5-tetrahydro-1H-cyclopropa[3,4]cyclopenta[1,2-c]pyrazol-1-yl]-1-[4-(2,3-dimethylphenyl)piperazin-1-yl]ethan-1-one]
41.6 | Cc1c(F)cccc1N1CCN(C(=O)Cn2nc(C(=O)N3CCC(O)CC3)c3c2CCC3)CC1 [Example 483, 1-(4-(3-fluoro-2-methylphenyl)piperazin-1-yl)-2-(3-(4-hydroxypiperidine-1-carbonyl)-5,6-dihydrocyclopenta[c]pyrazol-1(4H)-yl) ethanone]
19 | Cc1cccc(N2CCN(C(=O)Cn3nc(C(=O)N4CC5CNC5C4)c4c3CCC4)CC2)c1C (centres unmarked) [Example 199, 2-[3-(3,6-diazaspiro[3.2.0]heptane-3-carbonyl)-5,6-dihydrocyclopenta[c]pyrazol-1(4H)-yl]-1-[4-(2,3-dimethylphenyl)piperazin-1-yl]ethan-1-one]
2.46 | CC(=O)NC1CCN(C(=O)c2nn(CC(=O)N3CCN(c4cccc(C(F)(F)F)c4C)CC3)c3c2[C@@H]2C[C@@H]2C3)CC1 [Example 340, N-(1-((3bR,4aR)-1-(2-(4-(2-methyl-3-(trifluoromethyl)phenyl)piperazin-1-yl)-2-oxoethyl)-3b,4,4a,5-tetrahydro-1H-cyclopropa[3,4]cyclopenta[1,2-c]pyrazole-3-carbonyl)piperidin-4-yl)acetamide]
5.43 | Cc1cccc(N2CCN(C(=O)Cn3nc(C(=O)N4CC[C@H](O)[C@H](F)C4)c4c3CCCCC4)CC2)c1C [Example 412, 1-(4-(2,3-dimethylphenyl)piperazin-1-yl)-2-(3-((3R,4S)-3-fluoro-4-hydroxypiperidine-1-carbonyl)-5,6,7,8-tetrahydrocyclohepta[c]pyrazol-1(4H)-yl)ethanone]
77.5 | Cc1cccc(N2CCN(C(=O)Cn3nc(C(=O)N4CC[C@H](N5CCC(O)CC5)[C@H](F)C4)c4c3CC(F)(F)CC4)CC2)c1C (stereo in doubt) [Example 23, 2-[6,6-difluoro-3-[rac-(3R,4S)-3-fluoro-4-(4-hydroxy-1-piperidyl)piperidine-1-carbonyl]-5,7-dihydro-4H-indazol-1-yl]-1-[4-(2,3-dimethylphenyl)piperazin-1-yl]ethanone]
1.26 | Cc1c(Cl)cccc1N1CCN(C(=O)Cn2nc(C(=O)N3CC[C@H](O)C(C)C3)c3c2C[C@H]2C[C@@H]32)CC1 (stereo in doubt) [Example 351, 1-(4-(3-chloro-2-methylphenyl)piperazin-1-yl)-2-((3bR,4aR)-3-((3S,4S)-4-hydroxy-3-methylpiperidine-1-carbonyl)-3b,4,4a,5-tetrahydro-1H-cyclopropa[3,4]cyclopenta[1,2-c]pyrazol-1-yl)ethanone]
9.62 | Cc1cccc(N2CCN(C(=O)Cn3nc(C(=O)N4CCC(O)(CN5CCCCC5)CC4)c4c3C[C@H]3C[C@@H]43)CC2)c1C [Example 259, 1-[4-(2,3-dimethylphenyl)piperazin-1-yl]-2-[(3bR,4aR)-3-{4-hydroxy-4-[(piperidin-1-yl)methyl]piperidine-1-carbonyl}-3b,4,4a,5-tetrahydro-1H-cyclopropa[3,4]cyclopenta[1,2-c]pyrazol-1-yl]ethan-1-one]
165 | Cc1cccc(N2CCN(C(=O)Cn3nc(C(=O)N4CCCC4)c4c3CCOC4)CC2)c1C [Example 4, 1-[4-(2,3-dimethylphenyl)piperazin-1-yl]-2-[3-(pyrrolidine-1-carbonyl)-6,7-dihydro-4H-pyrano[4,3-c]pyrazol-1-yl]ethanone]
68.9 | Cc1cccc(N2CCN(C(=O)Cn3nc(C(=O)N4CCC(N5CCCC5)CC4)c4c3CCC4)CC2)c1C [Example 164]
4.97 | Cc1cccc(N2CCN(C(=O)Cn3nc(C(=O)N4C[C@@H](C)O[C@@H](C)C4)c4c3CCCCC4)CC2)c1C [Example 410, 2-(3-((2R,6S)-2,6-dimethylmorpholine-4-carbonyl)-5,6,7,8-tetrahydrocyclohepta[c]pyrazol-1(4H)-yl)-1-(4-(2,3-dimethylphenyl)piperazin-1-yl)ethanone]
